Assay results: patent publication EP3501511A1, “MEANS FOR PREVENTING AND TREATING BRAIN METASTASIS” (Fundación Centro Nacional De Investigaciones Oncológicas …, priority 2017, dated 2019)

Tests used:
482N1 = experiment: cKO-Stat3 brain slice cultures with established metastases treated with 4OH-Tamoxifen (BLI); type: cell-based, mouse; conditions: 4OH-Tamoxifen 1 µM; n≥ 4 brain slices per condition, P=0.013
Source text: (§1) To test the functional contribution of pStat3+ RA in brain metastasis we generated GFAP-Cre/ERT2;Stat3loxP/loxP (cKO-Stat3) mice in which syngeneic brain metastatic (BrM) cells, labeled with Luciferase and Gfp (Green fluorescent protein), were intracardiacally inoculated. We used two BrM models including lung adenocarcinoma model (482N1) and melanoma model (B16/F10-BrM). These syngeneic models have gained brain tropism while retaining an aggressive extracranial metastatic potential (Valiente, M. et al. Cell 156, 1002-1016 (2014) and also as disclosed herein). […] We confirmed Stat3 depletion from RA under these experimental conditions (Fig.2). […] In order to analyze the effect of Stat3 deletion in RA once brain metastases have developed, and given the limited time available in vivo before mice reach the humane endpoint, we cultured ex vivo cKO-Stat3 brain slices containing 2 weeks old lesions grown in mice (Fig. 4A). […]
(§2) Treatments to brain slices were given once during the experiment (4OH-Tmx, 1 µM, Sigma-Aldrich, ref. H7904; WP1066, 10 µM, Merck, ref. 573097; Doxycycline, 1 µg/ml, Sigma-Aldrich, ref. D9891; silibinin, 100 µM, Sigma-Aldrich, ref. S0417) by adding them to the media. […] Analysis of the knockdown level in H2030-BrM (Fig. 4F) was analyzed in a homogenate containing the mouse brain tissue and human cancer cells. […]

B16/F10-BrM [1] = experiment: as above; type: cell-based, mouse; conditions: 4OH-Tamoxifen 1 µM; n≥ 8 brain slices per condition, P=0.012
Source text: as §1, §2

Mouse astrocytes = experiment: Astrosphere assay; type: cell-based
Experimental: Mouse astrocytes were treated with conditioned media from BrM cell lines or with recombinant mouse protein including Egf (0.01 µg/ml, R&D Systems, ref. 2028-EG- 200), Mif (0.1 µg/ml, R&D Systems, ref. 1978-MF-0257CF) and Tgfα (0.1 µg/ml, R&D Systems, ref. 239-A-100) during 96 hours. After this treatment 10^4 astrocytes were seeded in low attachment plates and incubated for seven days in the presence of the same media to evaluate the ability to form astrospheres. Conditioned media from BrM cell lines were obtained after 3 days incubation of cancer cells in DMEM supplemented with 0.25 % FBS, 2 mM L-Glutamine, 100 IU/ml penicillin/streptomycin and […] amphotericin B. After being collected, the media was filtered and added to astrocytes. Conditioned media from astrospheres was collected, filtered and added to activated CD8 cells (Fig. 7P) or wild type brain slices (Fig. 7T).

B16/F10-BrM [2] = experiment: Tamoxifen-induced Stat3 depletion in reactive astrocytes of cKO-Stat3 mice inoculated with B16/F10-BrM; type: in vivo
Source text: To test the functional contribution of pStat3+ RA in brain metastasis we generated GFAP-Cre/ERT2;Stat3loxP/loxP (cKO-Stat3) mice in which syngeneic brain metastatic (BrM) cells, labeled with Luciferase and Gfp (Green fluorescent protein), were intracardiacally inoculated. We used two BrM models including lung adenocarcinoma model (482N1) and melanoma model (B16/F10-BrM). […] In order to analyze the effect of Stat3 deletion in RA once brain metastases have developed, and given the limited time available in vivo before mice reach the humane endpoint, we cultured ex vivo cKO-Stat3 brain slices containing 2 weeks old lesions grown in mice (Fig. 4A).
All animal experiments were performed in accordance with a protocol approved by the CNIO, Instituto de Salud Carlos III and Comunidad de Madrid Institutional Animal Care and Use Committee. Athymic nu/nu (Harlan), and C57BL/6 mice 4-6 weeks of age were used. cKO-Stat3 was generated by breeding GFAP-CRE/ERT2 (B6.Cg- Tg(GFAP-cre/ERT2)505Fmv/J, Jackson Labs, ref. 012849) with Stat3loxP/loxP16.
Brain metastatic derivative of a syngeneic B16/F10 model (B16/F10-BrM) was established according to a previous protocol (Bos, P. D. et al. Nature 459, 1005-1009 (2009); Nguyen, D. X. et al. Cell 138, 51-62 (2009)). Brain colonization assays were performed injecting 100 µl of PBS into the left ventricle containing 100,000 cancer cells. Brain colonization was analyzed in vivo and ex vivo by bioluminescence imaging. Anesthetized mice (Isofluorane) were injected retro-orbitally with D-Luciferin (150 mg/kg) and imaged with an IVIS Spectrum Xenogen machine (Caliper Life Sciences). Bioluminescence analysis was performed using Living Image software, version 3. […] Silibinin in the formula of Legasil® was administered by oral gavage daily the same day cancer cells were inoculated (200mg/kg) and until mice reached the endpoint of the experiment.

[3] = Tamoxifen treated cKO-Stat3 mice, n=7 metastases

SMILES: CC/C(=C(\c1ccc(O)cc1)c1ccc(OCCN(C)C)cc1)c1ccccc1 [4OH-Tamoxifen]
- growth of established metastases scored with BLI (482N1): impaired the growth of established metastases
- growth of established metastases scored with BLI (B16/F10-BrM [1]): impaired the growth of established metastases
- formation of astrospheres (Mouse astrocytes; cKO-Stat3 derived astrocytes induced by the cytokine cocktail, 4OH-Tamoxifen 1µM): unable to generate astrospheres

SMILES: C[C@H](NC(=O)/C(C#N)=C/c1cccc(Br)n1)c1ccccc1 [WP1066]
- formation of astrospheres (Mouse astrocytes; primary astrocytes in the presence of the cytokine cocktail (Egf, Tgfα, Mif)): impairs the formation of astrospheres

SMILES: CC/C(=C(\c1ccccc1)c1ccc(OCCN(C)C)cc1)c1ccccc1 [Tamoxifen]
- metastases of Score 0 (no pStat3 signal) in the surrounding microenvironment (B16/F10-BrM [2]; Tamoxifen treated cKO-Stat3 mice): 66.7%
- metastases of Score 1 (low pStat3 signal) in the surrounding microenvironment (B16/F10-BrM [2]; [3]): 22.2%
- metastases of Score 2 (high pStat3 signal) in the surrounding microenvironment (B16/F10-BrM [2]; [3]): 11.1%
- CD74+/Iba1+ cells infiltrating metastasis (B16/F10-BrM [2]; cKO-Stat3 brains treated with tamoxifen): less CD74+/lba1+ cells infiltrating metastasis
